Laboratory results published in patent US11236047B2 (ASTEX THERAPEUTICS LIMITED, priority 2017, dated 2022).
Where two headings read alike, the source gives them in different places.

Assays:
MDM2-p53 interaction = MDM2-p53 interaction (Homo sapiens (Human), UniProt Q00987); details: for inhibition at 0.1 µM: read-out: MDM2 % inhibition @0.10; for inhibition at 0.001 µM: read-out: MDM2 % inhibition @0.0010; for inhibition at 0.03 µM: read-out: MDM2 % inhibition @0.030
Procedure: MDM2-053 Interaction Using a 96-Well Plate Binding Assay (ELISA)
The ELISA assay was performed in streptavidin coated plates which were preincubated with 200 μl per well of 1 μg ml^−1 biotinylated IP3 peptide. The plates were ready to use for MDM2 binding after washing the plate with PBS.
The bound HRP activity was measured by enhanced chemiluminesence (ECL™, Amersham Biosciences) using the oxidation of the diacylhydrazide substrate, luminol, to generate a quantifiable light signal. The percentage of MDM2 inhibition at a given concentration is calculated as the [1−(RLU detected in the compound treated sample−RLU negative DMSO control)÷(RLU of DMSO positive and negative controls)]×100 or as the (RLU detected in the compound treated sample÷RLU of DMSO controls)×100. The IC50 was calculated using a plot of % MDM2 inhibition vs concentration and is the average of two or three independent experiments.

[1] = system: SJSA-1 cells (p53 wild-type, MDM2 amplified osteosarcoma); assay: Protocol A: SJSA-1 growth inhibition (sulphorhodamine B); details: read-out: SJSA-1 IC50 (μM) (Protocol A); SJSA-1, Protocol A
Procedure: Protocol A: SJSA-1 and SN40R2 Assays
(§1) The MDM2 amplified cell lines tested were an isogenic matched pair of p53 wild-type and mutated osteosarcoma (SJSA-1 and SN40R2, respectively). […] Following incubation with the SRB dye at room temperature for 30 min, the plates were washed with 1% acetic acid and left to dry. […] The GI50 was calculated by non-linear regression analysis of the data using Prism v4.0 statistical software.

SN40R2 cells = assay: Protocol B: SN40R2 CellTiter-Glo luminescent cell viability assay
SJSA-1 cells = assay: Protocol B: SJSA-1 CellTiter-Glo luminescent cell viability assay
[2] = system: SN40R2 cells (p53 mutated, MDM2 amplified osteosarcoma); assay: Protocol A: SN40R2 growth inhibition (sulphorhodamine B); details: for inhibition at 50 µM: read-out: SN40R2 % inhibition at 50
Procedure: Protocol A: SJSA-1 and SN40R2 Assays
as §1

[3] = read-out: SN40R2 % inhibition at 10, Protocol B, SN40R2, at 10 μM
[4] = read-out: SJSA1 IC50, Protocol B, SJSA-1
[5] = read-out: SN40R2 % inhibition at 10
[6] = Homo sapiens, SJSA-1, read-out: SJSA1 IC50 (μM), Protocol B, SJSA-1

MDM2-p53 interaction, sequence (Q00987 whole entry): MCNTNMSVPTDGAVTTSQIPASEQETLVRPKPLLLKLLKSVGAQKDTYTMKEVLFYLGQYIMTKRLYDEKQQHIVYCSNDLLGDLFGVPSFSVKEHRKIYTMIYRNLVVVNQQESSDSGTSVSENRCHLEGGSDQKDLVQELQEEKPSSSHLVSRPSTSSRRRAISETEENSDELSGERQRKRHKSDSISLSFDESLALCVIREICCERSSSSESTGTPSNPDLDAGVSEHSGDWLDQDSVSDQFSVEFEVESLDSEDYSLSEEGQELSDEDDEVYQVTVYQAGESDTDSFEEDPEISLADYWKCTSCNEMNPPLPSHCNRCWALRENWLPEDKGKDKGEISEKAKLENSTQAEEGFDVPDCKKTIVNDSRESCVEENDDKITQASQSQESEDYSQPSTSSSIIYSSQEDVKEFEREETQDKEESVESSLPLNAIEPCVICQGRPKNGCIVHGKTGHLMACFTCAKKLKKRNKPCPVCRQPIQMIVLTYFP

SMILES | inhibition at 10 µM (SN40R2 cells; [3]) | IC50 (SJSA-1 cells; [4]) | inhibition at 0.001 µM (MDM2-p53 interaction) | inhibition at 50 µM [2] | other results
CO[C@]1(c2ccc(Cl)cc2)c2ccc(C(C)(O)CN3CCNC3=O)cc2C(=O)N1Cc1ccc(Cl)cn1 (single isomer, unassigned) [Example 157] |  |  |  |  | MDM2 % at stated concentration (MDM2-p53 interaction; at 0.30 μM): 39%@0.30; IC50 [1]: 6.4 µM
CCC(O)(c1cc(F)c2c(c1)C(=O)N(Cc1ccc(C#N)cn1)[C@@]2(O[C@H]1CCOC1)c1ccc(Cl)cc1)c1ccn(C)n1 (single isomer, unassigned) [Example 335] | 7% | 2.8 µM |  |  | inhibition at 0.1 µM (MDM2-p53 interaction): 51%
CCC(O)(c1cc(F)c2c(c1)C(=O)N(Cc1ccc(C#N)cn1)[C@@]2(OCCOC)c1ccc(Cl)cc1)c1cn(C)cn1 (single isomer, unassigned) [Example 430] | 4% |  | 59% | 33% | 
CCC(O)(c1cc(F)c2c(c1)C(=O)N(Cc1ccc(C#N)nc1)[C@@]2(O[C@H]1CCOC1)c1ccc(Cl)cc1)c1cn(C)cn1 (single isomer, unassigned) [Example 431] | 5% | 0.16 µM | 48% | 39% | 
CCC(O)(c1cc(F)c2c(c1)C(=O)N(Cc1ncc(C#N)cn1)[C@@]2(OCC1(C#N)CC1)c1ccc(Cl)cc1)c1cn(C)cn1 (single isomer, unassigned) [Example 462] | 4% |  | 80% | 37% | 
CCC(O)(c1cc(F)c2c(c1)C(=O)N(Cc1ncc(Cl)cn1)[C@@]2(O[C@H]1CCOC1)c1ccc(Cl)cc1)c1cn(C)cn1 (single isomer, unassigned) [Example 474] | 12% | 1.3 µM |  |  | inhibition at 0.03 µM (MDM2-p53 interaction): 38%
CCC(O)(c1cc(F)c2c(c1)C(=O)N(Cc1ncc(Cl)cn1)[C@@]2(O[C@H]1CCOC1)c1ccc(Cl)cc1)c1cn(C)cn1 (single isomer, unassigned) [Example 475] |  | 0.022 µM | 71% | 46% | 
CCC(O)(c1cc(F)c2c(c1)C(=O)N(Cc1ncc(Cl)cn1)[C@@]2(OCC1(CO)CC1)c1ccc(Cl)cc1)c1cn(C)cn1 (single isomer, unassigned) [Example 476] | 4% | 0.6 µM |  |  | inhibition at 0.03 µM (MDM2-p53 interaction): 51%
CCC(O)(c1cc(F)c2c(c1)C(=O)N(Cc1ncc(Cl)cn1)[C@@]2(OCCO)c1ccc(Cl)cc1)[C@H]1CC[C@H](O)CC1 (single isomer, unassigned) [Example 517] |  | 0.01 µM | 82% | 26% | 
CCC(O)(CN1CCNCC1)c1cc(F)c2c(c1)C(=O)N(Cc1ncc(Cl)cn1)[C@@]2(OCC1(C#N)CC1)c1ccc(Cl)cc1 (single isomer, unassigned) [Example 536] | 46% | 0.13 µM | 64% |  | 
CCC(O)(CN1CCNCC1)c1cc(F)c2c(c1)C(=O)N(Cc1ncc(Cl)cn1)[C@@]2(OCC1(F)COC1)c1ccc(Cl)cc1 (single isomer, unassigned) [Example 538] | 43% | 2.2 µM |  |  | inhibition at 0.03 µM (MDM2-p53 interaction): 44%
CCC(O)(c1cc(F)c2c(c1)C(=O)N(Cc1ncc(Cl)cn1)[C@@]2(O[C@H]1CCOC1)c1ccc(Cl)cc1)C1(F)CCNCC1 (single isomer, unassigned) [Example 540] | 62% | 1.8 µM |  |  | inhibition at 0.03 µM (MDM2-p53 interaction): 33%
CN1CCC(C(C)(O)c2cc(F)c3c(c2)C(=O)N(Cc2ncc(Cl)cn2)[C@@]3(OCC2(CO)CC2)c2ccc(Cl)cc2)CC1 (single isomer, unassigned) [Example 554] | 11% |  | 74% | 46% | 
CC(C)(O)c1cc(F)c2c(c1)C(=O)N(Cc1ccc(Cl)cc1)[C@@]2(OCC1(CO)CC1)c1ccc(Cl)cc1 [Example 2, (3R)-3-(4-chlorophenyl)-2-[(4-chlorophenyl)methyl]-4-fluoro-3-{[1-(hydroxymethyl)cyclopropyl]methoxy}-6-(2-hydroxypropan-2-yl)-2,3-dihydro-1H-isoindol-1-one] |  |  |  |  | IC50 ([2]; 72 h, read-out: SN40R2 IC50 (μM) (Protocol A)): 17 µM
CCC(O)(c1cc(F)c2c(c1)C(=O)N(Cc1ncc(Cl)cc1O)[C@@]2(OCCO)c1ccc(Cl)cc1)c1cn(C)cn1 (stereo partly drawn) [Example 443, (3R)-2-[(5-chloro-3-hydroxypyridin-2-yl)methyl]-3-(4-chlorophenyl)-4-fluoro-6-[1-hydroxy-1-(1-methyl-1H-imidazol-4-yl)propyl]-3-(2-hydroxyethoxy)-2,3-dihydro-1H-isoindol-1-one] |  |  |  |  | inhibition at 10 µM (SN40R2 cells; [5]): 3%; IC50 (SJSA-1 cells; [6]): 0.093 µM; IC50 ([2]; read-out: SN40R2 IC50 (μM)): 38 µM
CCC(O)(c1cc(F)c2c(c1)C(=O)N(Cc1ccc(C#N)cn1)[C@@]2(O[C@H]1CCOC1)c1ccc(Cl)cc1)C1(F)CCOCC1 (stereo partly drawn) [Example 446, 6-{[(1R)-1-(4-chlorophenyl)-7-fluoro-5-[1-(4-fluorooxan-4-yl)-1-hydroxypropyl]-3-oxo-1-[(3S)-oxolan-3-yloxy]-2,3-dihydro-1H-isoindol-2-yl]methyl}pyridine-3-carbonitrile] |  | 0.023 µM |  |  | IC50 ([2]; read-out: SN40R2 IC50 (μM)): 29 µM
CCC(O)(c1cc(F)c2c(c1)C(=O)N(Cc1ncc(Cl)cn1)[C@@]2(OCC1(C(N)=O)CC1)c1ccc(Cl)cc1)c1cn(C)cn1 (stereo partly drawn) [Example 486, 1-({[(1R)-1-(4-chlorophenyl)-2-[(5-chloropyrimidin-2-yl)methyl]-7-fluoro-5-[1-hydroxy-1-(1-methyl-1H-imidazol-4-yl)propyl]-3-oxo-2,3-dihydro-1H-isoindol-1-yl]oxy}methyl)cyclopropane-1-carboxamide] |  | 0.051 µM | 59% | 10% | 
CC[C@@](O)(c1cc(F)c2c(c1)C(=O)N(Cc1ncc(C#N)cn1)[C@@]2(O[C@H]1CCOC1)c1ccc(Cl)cc1)C1CCC(O)CC1 (stereo partly drawn) [Example 503, 2-{[(1R)-1-(4-chlorophenyl)-7-fluoro-5-{1-hydroxy-1-[trans-4-hydroxycyclohexyl]propyl}-3-oxo-1-[(3S)-oxolan-3-yloxy]-2,3-dihydro-1H-isoindol-2-yl]methyl}pyrimidine-5-carbonitrile] | 13% |  | 87% |  | IC50 (SJSA-1 cells; [6]): 0.011 µM
CC[C@](O)(c1cc(F)c2c(c1)C(=O)N(Cc1ncc(C#N)cn1)[C@@]2(O[C@H]1CCOC1)c1ccc(Cl)cc1)C1(F)CCOCC1 [Example 508, 2-{[(1R)-1-(4-chlorophenyl)-7-fluoro-5-[(1S)-1-(4-fluorooxan-4-yl)-1-hydroxypropyl]-3-oxo-1-[(3S)-oxolan-3-yloxy]-2,3-dihydro-1H-isoindol-2-yl]methyl}pyrimidine-5-carbonitrile] | 9% |  |  |  | inhibition at 0.1 µM (MDM2-p53 interaction): 17%; inhibition at 10 µM (SJSA-1 cells; Homo sapiens, SJSA-1, read-out: SJSA1 % inhibition at 10): 11%
CCC(O)(c1cc(F)c2c(c1)C(=O)N(Cc1ncc(C#N)cn1)[C@@]2(OCCO)c1ccc(Cl)cc1)[C@H]1CC[C@H](O)CC1 (stereo partly drawn) [Example 510, 2-{[(1R)-1-(4-chlorophenyl)-7-fluoro-5-{1-hydroxy-1-[trans-4-hydroxycyclohexyl]propyl}-1-(2-hydroxyethoxy)-3-oxo-2,3-dihydro-1H-isoindol-2-yl]methyl}pyrimidine-5-carbonitrile] | 9% |  | 79% | 5% | 
[2H]C([2H])(O)C1(C([2H])([2H])O[C@]2(c3ccc(Cl)cc3)c3c(F)cc(C(C)(C)O)cc3C(=O)N2Cc2ncc(C#N)cn2)CC1 [Example 513, 2-{[(1R)-1-(4-chlorophenyl)-7-fluoro-1-({1-[hydroxydideuteromethyl]cyclopropyl}dideuteromethoxy)-5-(2-hydroxypropan-2-yl)-3-oxo-2,3-dihydro-1H-isoindol-2-yl]methyl}pyrimidine-5-carbonitrile] | 4% |  |  | 19% | 
CC[C@@](O)(c1cc(F)c2c(c1)C(=O)N(Cc1ncc(C#N)cn1)[C@@]2(O[C@H]1CCOC1)c1ccc(Cl)cc1)C1CCN(C)CC1 [Example 557, 2-{[(1R)-1-(4-chlorophenyl)-7-fluoro-5-[(1S)-1-hydroxy-1-(1-methylpiperidin-4-yl)propyl]-3-oxo-1-[(3S)-oxolan-3-yloxy]-2,3-dihydro-1H-isoindol-2-yl]methyl}pyrimidine-5-carbonitrile] | 6% |  | 81% |  | inhibition at 10 µM [2, 5]: 37%
CC[C@@](O)(c1cc(F)c2c(c1)C(=O)N(Cc1ncc(Cl)cn1)[C@@]2(O[C@H]1C[C@@H](O)C1)c1ccc(Cl)cc1)C1CCN(C)CC1 [Example 560, (3R)-3-(4-chlorophenyl)-2-[(5-chloropyrimidin-2-yl)methyl]-4-fluoro-6-[(1S)-1-hydroxy-1-(1-methylpiperidin-4-yl)propyl]-3-[cis-3-hydroxycyclobutoxy]-2,3-dihydro-1H-isoindol-1-one] | 3% |  | 30% |  | 
CC[C@@](O)(c1cc(F)c2c(c1)C(=O)N(Cc1ncc(Cl)cc1O)[C@@]2(O[C@H]1CCOC1)c1ccc(Cl)cc1)C1CCN(C)CC1 [Example 568, 2-[(5-chloro-3-hydroxypyridin-2-yl)methyl]-3-(4-chlorophenyl)-4-fluoro-6-[(1S)-1-hydroxy-1-(1-methylpiperidin-4-yl)propyl]-3-[(3S)-oxolan-3-yloxy]-2,3-dihydro-1H-isoindol-1-one] | 36% |  | 76% |  | 
